Where a name gives a salt, the structure may show the parent alone.
Key:
human macrophages = assay: RT-qPCR gene expression in human macrophages; type: cell-based; details: LPS-stimulated human macrophages, LPS 4 h
Experimental: PBMCs were taken, and CD14+ monocytes were isolated using MagniSort Human CD14 Positive Selection Kit (Thermo Fisher) according to the manufacturer's protocol. CD14 Monocytes were then differentiated in T-175 flasks in RPMI containing FCS (10%), penicillin/streptomycin (1%) and recombinant human M-CSF (1:1000). After 6 days, the supernatant was discarded, cells were scraped and counted, and human monocyte-derived macrophages (hMDMs) were plated in 12-well plates at 1×10^6 cells/mL RPMI containing FCS (10%) and penicillin/streptomycin (1%).
All compounds used DMSO as a vehicle except for 4-hydroxy tamoxifen (EtOH), NAC (PBS), and AOAA for tracing experiments (Media). […]
RNA extraction from cells was carried out using a Purelink™ RNA kit (Invitrogen) according to the manufacturer's instructions. […] Isolated RNA was quantified using a NanoDrop 2000 spectrophotometer, and RNA concentration was normalised to the lowest concentration across all samples with RNAse-free water. If necessary, samples were DNAse-treated after quantification using DNAse I (Thermo Fisher) according to the manufacturer's instructions. […] Real-time quantitative PCR was performed on the cDNA generated in the previous step, using primers designed in-house and ordered from Eurofins Genomics, as detailed in Table S2. […] Relative expression (2^−ΔΔCT) was calculated from the CT values for each sample and gene of interest.

BMDMs = assay: Immunofluorescence, Mitotracker Red and dsRNA; type: cell-based, mouse; details: LPS 4 h
Experimental: All compounds used DMSO as a vehicle except for 4-hydroxy tamoxifen (EtOH), NAC (PBS), and AOAA for tracing experiments (Media). LPS was used at a concentration of 100 ng/ml for indicated timepoints (2, 3, 4, 6, 8, 24, 48 h). FHIN1 (10 or 20 μM), MMF (50 or 100 μM), DMF (25 μM), AOAA (5 mM), oligomycin (10 μM), CCCP (50 μM) NAC (1 mM), and IMT1 (10 μM) pre-treatments were performed for 3 h prior the addition of LPS. Cells were treated with valinomycin (10 nM) 15 mins before LPS stimulation. Anti-CD210 or IgG control (10 μg/ml) antibodies were added to cells 1 h prior to LPS stimulation. Recombinant mouse IL-10 protein (100 ng/ml) was added to cells at the same time as LPS. Cells were treated with IFN-B1 (220 ng/ml) for 3 h. Cells were treated with C-178 (1 μM) 1 h prior to LPS stimulation or transfection with 2′3′-cGAMP (1.5 μg/ml) for 4 hrs to achieve cGAS-STING activation. Cells were treated with ODN 2088 (1 μM) for 1 hr prior to LPS stimulation or transfection with CPG ODN 1826 (1.5 μg/ml) to achieve TLR9 activation. 3 different timepoints of 4-hydroxy tamoxifen (TAM) (600 nM or 2 μM) or EtOH treatment were performed-these are specified in the individual figure legends. For ‘48 h’ treatments EtOH/TAM was added on day 5 of 6 during the BMDM differentiation protocol. On day 6 they were plated with EtOH/TAM (left overnight) and treated the following day. For ‘72 h’ treatments EtOH/TAM was added on day […] of 6 during the BMDM differentiation protocol. On day 6 they were plated with EtOH/TAM (left overnight) and treated the following day. For ‘96 h’ treatments EtOH/TAM was added on day […] of 6 during the BMDM differentiation protocol. On day 6 they were plated with EtOH/TAM and treated 2 days later.
Cells were plated on 20 mm cover slips in 12-well plates. Cells were treated as required and Mitotracker Red CMXRos (100 nM, Thermo Fisher), was added to medium 30 mins prior to end of cell treatments. After 30 min incubation, cells were washed three times with warm PBS. Cells were subsequently fixed for 10 mins with 4% paraformaldehyde/PBS at 37° C. Cells were washed three times with PBS and permeabilized for 1 hour in block solution (1% BSA, 22.52 mg/ml glycine, 0.1% tween 20 in PBS). Anti-dsRNA antibody (Merck) was diluted 1/60 in block solution and incubated with cells overnight at room temperature. Cells were washed three times with PBS for 5 mins/wash. […] Images were analysed using the LAS X Life Science Microscope Software Platform (Leica). The same microscope instrument settings were used for all samples and all images were analysed using the same settings. […] Quantification of dsRNA or Mitotracker Red CMXRos signal intensity was performed using the measure function in ImageJ 1.53t (NIH).

MAVS = MAVS oligomerisation; type: cell-based, mouse; details: BMDMs pre-treated, LPS 4 h
Experimental: BMDMs were plated at 1×10^6 cells/well in technical triplicate and treated as desired. After treatment, cells were washed twice with 200 μl cold PBS before being lysed in crosslinking lysis buffer (50 mM HEPES, 0.5% triton X-100, 1X protease inhibitor cocktail). Samples were placed on ice for 15 mins. Lysates were centrifuged for 15 mins at 6000×g at 4° C. and the supernatant was removed and frozen down as the ‘soluble fraction.’ 20 μl of the soluble fraction was mixed with 5 μl of sample lysis buffer (0.125 M Tris pH 6.8, 10% glycerol, 0.02% SDS, 5% DTT) and run on a 10% gel. The insoluble pellet was resuspended in HEPES (50 mM) and washed 3 times by centrifuging at 6000×g at 4° C. and removing the supernatant each time. After the final wash, the pellet was resuspended in 500 μl crosslinking buffer (50 mM HEPES, 150 mM NaCl) and disuccinimidyl suberate (DSS, Thermo Fisher, made up in anhydrous DMSO) was added to the final concentration of 2 mM. Immediately following the addition of DSS, the sample was inverted several times and incubated for 45 mins at 37° C. The sample was then centrifuged for 15 mins at 6000×g at 4° C., before the supernatant was removed and the pellet was resuspended in 30 μl sample lysis buffer. The resuspended ‘insoluble fraction’ was subsequently boiled for 5 mins at 95° C. before being run on a gel.

Q: For `CCOC(=O)[C@@]12CCCC=C1N(Cc1ccc(-c3ccccc3)cc1)C(=O)[C@H]2CC(=O)NC` [FHIN1, Fumarate hydratase-IN-1], which IL10 expression (human macrophages) is on record?
A: suppressed

Q: What about the Tnfa expression (human macrophages) of the same molecule?
A: increased

Q: What about the “staining intensity of mitotracker RED (mtRED), MMP-dependent dye” value (BMDMs; BMDMs pre-treated 3 h) of the same molecule?
A: increased staining intensity

Q: What about the “dsRNA accumulation (immunofluorescence)” value (BMDMs; BMDMs pre-treated, relative to DMSO control) of the same molecule?
A: accumulation

Q: What about the MAVS oligomerisation (MAVS) of the same molecule?
A: observed MAVS oligomerisation

— patent publication US20250018019A1, “TREATMENT OF INTERFERON DRIVEN INFLAMMATION” (The Provost, Fellows, Foundation Scholars and the other …, priority 2023, published 2025)
